Earlier results in US11576924B2, “Compounds for the prevention and treatment of diseases and the use thereof” (Galectin Sciences, LLC, priority 2017, dated 2023).

What was measured:
lung fibrosis = conditions: pulmonary administration (intra-tracheal instillation or nebulizers)
galectin 3 = galectin 3 (Homo sapiens, UniProt P17931)
Chain of galectin 3 (P17931 whole entry, species assumed): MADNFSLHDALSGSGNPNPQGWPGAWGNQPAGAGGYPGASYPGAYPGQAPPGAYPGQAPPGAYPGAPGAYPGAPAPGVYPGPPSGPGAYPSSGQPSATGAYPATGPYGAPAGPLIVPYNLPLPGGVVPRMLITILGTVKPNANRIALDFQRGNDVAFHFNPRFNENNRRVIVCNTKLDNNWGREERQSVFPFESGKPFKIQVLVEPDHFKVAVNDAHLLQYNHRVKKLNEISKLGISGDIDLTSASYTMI

binding to galectin 3 (galectin 3): bind to galectin 3
Compound: OC[C@H]1O[C@@H](S[C@@H]2O[C@H](CO)[C@H](O)[C@H](n3cc(-c4cccc(F)c4)nn3)[C@H]2O)[C@H](O)[C@@H](n2cc(-c3cccc(F)c3)nn2)[C@H]1O [TD-139]
efficacy in mouse model of lung fibrosis (lung fibrosis): effective in a mouse model of lung fibrosis
